Test results: patent publication US12012392B2, “Sulfonamide carboxamide compounds” (Inflazome Limited, priority 2017, dated 2024)

Test system: not listed separately
Experiment: PK protocol (intravenous and oral administration)
Format: in vivo, male Sprague Dawley rats
Conditions: male, Sprague Dawley, plasma; rat, intravenous, dose 1 mg/kg
Procedure: Pharmacokinetic parameters were determined in male Sprague Dawley rats (Charles River, UK, 250-350 g; or Vital River Laboratory Animal Technology Co Ltd, Beijing, China, 7-9 weeks old). Animals were individually housed during the study and maintained under a 12 h light/dark cycle. Animals had free access to food and water except that some orally dosed animals were food deprived overnight prior to the study. For intravenous administration, compounds were formulated as a solution in water or DMSO:PBS [10:90] in 2 mL/kg dosing volume and administered via tail vein. For oral administration, compounds were formulated as a solution in water or DMSO:water [10:90] in 5 mL/kg dosing volume and administered orally.
Serial blood samples (about 120-300 μL) were taken from each animal at each of 8 time-points post dose (0.083, 0.25, 0.5, 1, 2, 4, 8 and 24 h) or at each of 12 time-points post dose (0.03, 0.1, 0.17, 0.25, 0.5, 1, 2, 4, 6, 8, 12 and 24 h) or pre-dose and at each of 9 time-points post dose (0.25, 0.5, 1, 2, 4, 6, 8, 12 and 24 h). Samples were held on ice for no longer than 30 minutes before centrifugation (10,000 rpm (8,385 g) for 3 minutes; or 5,696 rpm (3,000 g) for 15 minutes) for plasma generation. Plasma was frozen on dry ice prior to bioanalysis. PK parameters were generated from LC-MS/MS data using Dotmatics or Phoenix WinNonlin 6.3 software.

AUC | clearance | half-life | SMILES
2070 ng·h/mL | 8.1 mL/min/kg | 14.2 h | CN(CCO)Cc1cc(S(=O)(=O)NC(=O)Nc2c3c(cc4c2CCC4)CCC3)nn1C [Example 77, N-((1,2,3,5,6,7-Hexahydro-s-indacen-4-yl)carbamoyl)-5-(((2-hydroxyethyl)(methyl)amino)methyl)-1-methyl-1H-pyrazole-3-sulfonamide]
611 ng·h/mL | 27.8 mL/min/kg | 1.2 h | CC(C)(O)c1coc(S(=O)(=O)NC(=O)Nc2c3c(cc4c2CCC4)CCC3)c1 [MCC950, reference compound]

Same assay, conditions: male, Sprague Dawley, plasma; rat, intravenous, dose 1 mg/kg; read-out: Vdss

Vd | SMILES
1.9 L/kg | CN(CCO)Cc1cc(S(=O)(=O)NC(=O)Nc2c3c(cc4c2CCC4)CCC3)nn1C [Example 77, N-((1,2,3,5,6,7-Hexahydro-s-indacen-4-yl)carbamoyl)-5-(((2-hydroxyethyl)(methyl)amino)methyl)-1-methyl-1H-pyrazole-3-sulfonamide]
0.53 L/kg | CC(C)(O)c1coc(S(=O)(=O)NC(=O)Nc2c3c(cc4c2CCC4)CCC3)c1 [MCC950, reference compound]

Same assay, conditions: male, Sprague Dawley, plasma; rat, intravenous, dose 2.41 mg/kg

AUC | clearance | half-life | SMILES
787 ng·h/mL | 114 mL/min/kg | 0.3 h | CN(CCO)C(=O)c1cc(S(=O)(=O)NC(=O)Nc2c3c(cc4c2CCC4)CCC3)nn1C [Example 59, 3-(N-((1,2,3,5,6,7-Hexahydro-s-indacen-4-yl)carbamoyl)sulfamoyl)-N-(2-hydroxyethyl)-N,1-dimethyl-1H-pyrazole-5-carboxamide]

Same assay, conditions: male, Sprague Dawley, plasma; rat, intravenous, dose 2.41 mg/kg; read-out: Vdss

Vd | SMILES
2.37 L/kg | CN(CCO)C(=O)c1cc(S(=O)(=O)NC(=O)Nc2c3c(cc4c2CCC4)CCC3)nn1C [Example 59, 3-(N-((1,2,3,5,6,7-Hexahydro-s-indacen-4-yl)carbamoyl)sulfamoyl)-N-(2-hydroxyethyl)-N,1-dimethyl-1H-pyrazole-5-carboxamide]

Biological target: NLRP3 (Homo sapiens, UniProt Q96P20)
Sequence (Q96P20 whole entry): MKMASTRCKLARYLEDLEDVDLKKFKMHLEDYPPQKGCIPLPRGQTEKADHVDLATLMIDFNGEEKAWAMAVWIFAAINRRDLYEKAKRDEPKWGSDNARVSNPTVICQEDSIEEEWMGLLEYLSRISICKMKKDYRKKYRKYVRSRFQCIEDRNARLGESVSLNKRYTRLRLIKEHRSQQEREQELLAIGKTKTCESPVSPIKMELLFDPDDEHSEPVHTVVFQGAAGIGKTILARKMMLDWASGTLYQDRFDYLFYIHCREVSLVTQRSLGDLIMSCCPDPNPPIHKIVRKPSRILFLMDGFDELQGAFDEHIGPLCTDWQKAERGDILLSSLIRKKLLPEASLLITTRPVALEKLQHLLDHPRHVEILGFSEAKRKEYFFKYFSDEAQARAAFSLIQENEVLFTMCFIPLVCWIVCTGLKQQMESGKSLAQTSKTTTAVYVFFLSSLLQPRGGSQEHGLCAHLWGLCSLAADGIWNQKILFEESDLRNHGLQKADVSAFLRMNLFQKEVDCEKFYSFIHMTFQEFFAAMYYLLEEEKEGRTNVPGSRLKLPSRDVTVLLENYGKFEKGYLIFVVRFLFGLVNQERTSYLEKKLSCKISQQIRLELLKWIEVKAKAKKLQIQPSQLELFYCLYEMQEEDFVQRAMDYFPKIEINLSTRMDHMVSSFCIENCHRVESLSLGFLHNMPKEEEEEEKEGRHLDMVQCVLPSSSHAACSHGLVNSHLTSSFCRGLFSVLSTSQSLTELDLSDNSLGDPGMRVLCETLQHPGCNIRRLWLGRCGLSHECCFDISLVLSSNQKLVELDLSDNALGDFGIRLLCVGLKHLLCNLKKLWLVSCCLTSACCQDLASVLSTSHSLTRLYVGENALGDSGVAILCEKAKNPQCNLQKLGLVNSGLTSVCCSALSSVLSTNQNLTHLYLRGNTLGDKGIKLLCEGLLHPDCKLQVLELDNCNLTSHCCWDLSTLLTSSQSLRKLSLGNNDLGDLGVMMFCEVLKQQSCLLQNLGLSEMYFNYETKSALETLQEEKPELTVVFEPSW
Experiment: THP-1 cells pyroptosis assay
Format: cell-based
Design: Seed THP-1 cells (25,000 cells/well) containing 1.0 μg/ml LPS; host or cells: THP-1 cells, LPS-primed, nigericin-stimulated
Conditions: LPS 1 μg/ml, nigericin 5 μM, resazurin read-out
Procedure: THP-1 cells (ATCC #TIB-202) were grown in RPMI containing L-glutamine (Gibco #11835) supplemented with 1 mM sodium pyruvate (Sigma #S8636) and penicillin (100 units/ml)/streptomycin (0.1 mg/ml) (Sigma #P4333) in 10% Fetal Bovine Serum (FBS) (Sigma #F0804). The cells were routinely passaged and grown to confluency (˜10^6 cells/ml). On the day of the experiment, THP-1 cells were harvested and resuspended into RPMI medium (without FBS). The cells were then counted and viability (>90%) checked by Trypan blue (Sigma #T8154). Appropriate dilutions were made to give a concentration of 625,000 cells/ml. To this diluted cell solution was added LPS (Sigma #L4524) to give a 1 μg/ml Final Assay Concentration (FAC). 40 μl of the final preparation was aliquoted into each well of a 96-well plate. The plate thus prepared was used for compound screening.
The following method step-by-step assay was followed for compound screening. • 1. Seed THP-1 cells (25,000 cells/well) containing 1.0 μg/ml LPS in 40 μl of RPMI medium (without FBS) in 96-well, black walled, clear bottom cell culture plates coated with poly-D-lysine (VWR #734-0317) • 2. Add 5 μl compound (8 points half-log dilution, with 10 μM top dose) or vehicle (DMSO 0.1% FAC) to the appropriate wells • 3. Incubate for 3 hrs at 37° C. and 5% CO2 • 4. Add 5 μl nigericin (Sigma #N7143) (FAC 5 μM) to all wells • 5. Incubate for 1 hr at 37° C. and 5% CO2 • 6. At the end of the incubation period, spin plates at 300×g for 3 mins and remove supernatant • 7. Then add 50 μl of resazurin (Sigma #R7017) (FAC 100 μM resazurin in RPMI medium without FBS) and incubate plates for a further 1-2 hrs at 37° C. and 5% CO2 • 8. Plates were read in an Envision reader at Ex 560 nm and Em 590 nm • 9. IC50 data is fitted to a non-linear regression equation (log inhibitor vs response-variable slope 4-parameters) 96-Well Plate Map

SMILES | IC50
CCn1nc(S(=O)(=O)NC(=O)Nc2c(C(C)C)cc(F)cc2C(C)C)cc1C1(O)COC1 [Example 44, 1-Ethyl-N-((4-fluoro-2,6-diisopropylphenyl)carbamoyl)-5-(3-hydroxyoxetan-3-yl)-1H-pyrazole-3-sulfonamide] | 160 to 640 nM
Cn1nc(S(=O)(=O)NC(=O)Nc2c3c(cc4c2CCC4)CCC3)cc1C(=O)N1CCC(O)CC1 [Example 70, N-((1,2,3,5,6,7-Hexahydro-s-indacen-4-yl)carbamoyl)-5-(4-hydroxypiperidine-1-carbonyl)-1-methyl-1H-pyrazole-3-sulfonamide] | 2560 to 10000 nM
CC(C)c1cccc(C(C)C)c1NC(=O)NS(=O)(=O)c1cc(C(=O)N2CCOCC2)n(C)n1 [Example 67, N-((2,6-Diisopropylphenyl)carbamoyl)-1-methyl-5-(morpholine-4-carbonyl)-1H-pyrazole-3-sulfonamide] | 640 to 2560 nM
CN(CCO)C(=O)c1cc(S(=O)(=O)NC(=O)Nc2c3c(cc4c2CCC4)CCC3)nn1C [Example 59, 3-(N-((1,2,3,5,6,7-Hexahydro-s-indacen-4-yl)carbamoyl)sulfamoyl)-N-(2-hydroxyethyl)-N,1-dimethyl-1H-pyrazole-5-carboxamide] | 40 to 160 nM
CC(C)c1cc(F)cc(C(C)C)c1NC(=O)NS(=O)(=O)c1cc(C2(O)CCOCC2)n(C)n1 [Example 54, N-((4-Fluoro-2,6-diisopropylphenyl)carbamoyl)-5-(4-hydroxytetrahydro-2H-pyran-4-yl)-1-methyl-1H-pyrazole-3-sulfonamide] | 640 to 2560 nM
COC1(c2cc(S(=O)(=O)NC(=O)Nc3c(C(C)C)cc(F)cc3C(C)C)nn2C)COC1 [Example 52, N-((4-Fluoro-2,6-diisopropylphenyl)carbamoyl)-5-(3-methoxyoxetan-3-yl)-1-methyl-1H-pyrazole-3-sulfonamide] | 160 to 640 nM
CC(C)c1cc(F)cc(C(C)C)c1NC(=O)NS(=O)(=O)c1cc(C2(O)COC2)n(C(C)C)n1 [Example 43, N-((4-Fluoro-2,6-diisopropylphenyl)carbamoyl)-5-(3-hydroxyoxetan-3-yl)-1-isopropyl-1H-pyrazole-3-sulfonamide] | 640 to 2560 nM
COCCN(CCOC)C(=O)c1cc(S(=O)(=O)NC(=O)Nc2c(C(C)C)cccc2C(C)C)nn1C [Example 69, 3-(N-((2,6-Diisopropylphenyl)carbamoyl)sulfamoyl)-N,N-bis(2-methoxyethyl)-1-methyl-1H-pyrazole-5-carboxamide] | 2560 to 10000 nM
COCCN(C)C(=O)c1cc(S(=O)(=O)NC(=O)Nc2c(C(C)C)cccc2C(C)C)nn1C [Example 68, 3-(N-((2,6-Diisopropylphenyl)carbamoyl)sulfamoyl)-N-(2-methoxyethyl)-N,1-dimethyl-1H-pyrazole-5-carboxamide] | 2560 to 10000 nM
CN(C(=O)c1cc(S(=O)(=O)NC(=O)Nc2c3c(cc4c2CCC4)CCC3)nn1C)C1COC1 [Example 63, 3-(N-((1,2,3,5,6,7-Hexahydro-s-indacen-4-yl)carbamoyl)sulfamoyl)-N,1-dimethyl-N-(oxetan-3-yl)-1H-pyrazole-5-carboxamide] | 640 to 2560 nM
CC(C)c1cc(F)cc(C(C)C)c1NC(=O)NS(=O)(=O)c1ccn(C[C@@H](C)O)n1 [Example 27, (R)—N-((4-Fluoro-2,6-diisopropylphenyl)carbamoyl)-1-(2-hydroxypropyl)-1H-pyrazole-3-sulfonamide] | 640 to 2560 nM
CN(CC(O)CO)C(=O)c1cc(S(=O)(=O)NC(=O)Nc2c3c(cc4c2CCC4)CCC3)nn1C (stereo not drawn) [Example 65, N-(2,3-Dihydroxypropyl)-3-(N-((1,2,3,5,6,7-hexahydro-s-indacen-4-yl)carbamoyl)sulfamoyl)-N,1-dimethyl-1H-pyrazole-5-carboxamide] | 640 to 2560 nM
CN(C(=O)c1cc(S(=O)(=O)NC(=O)Nc2c3c(cc4c2CCC4)CCC3)nn1C)C1CCOCC1 [Example 60, 3-(N-((1,2,3,5,6,7-Hexahydro-s-indacen-4-yl)carbamoyl)sulfamoyl)-N,1-dimethyl-N-(tetrahydro-2H-pyran-4-yl)-1H-pyrazole-5-carboxamide] | 2560 to 10000 nM

Continued, values first:

IC50 | SMILES
640 to 2560 nM | Cn1nc(S(=O)(=O)NC(=O)Nc2c3c(cc4c2CCC4)CCC3)cc1C(=O)N1CCOCC1 [Example 74, N-((1,2,3,5,6,7-Hexahydro-s-indacen-4-yl)carbamoyl)-1-methyl-5-(morpholine-4-carbonyl)-1H-pyrazole-3-sulfonamide]
2560 to 10000 nM | COCCNC(=O)c1cc(S(=O)(=O)NC(=O)Nc2c3c(cc4c2CCC4)CCC3)nn1C [Example 85, 3-(N-((1,2,3,5,6,7-Hexahydro-s-indacen-4-yl)carbamoyl)sulfamoyl)-N-(2-methoxyethyl)-1-methyl-1H-pyrazole-5-carboxamide]
640 to 2560 nM | CC(C)c1cccc(C(C)C)c1NC(=O)NS(=O)(=O)c1cc(C(=O)N(C)CCO)n(C)n1 [Example 83, 3-(N-((2,6-Diisopropylphenyl)carbamoyl)sulfamoyl)-N-(2-hydroxyethyl)-N,1-dimethyl-1H-pyrazole-5-carboxamide]
2560 to 10000 nM | Cn1nc(S(=O)(=O)NC(=O)Nc2c3c(cc4c2CCC4)CCC3)cc1C(=O)NCCO [Example 84, 3-(N-((1,2,3,5,6,7-Hexahydro-s-indacen-4-yl)carbamoyl)sulfamoyl)-N-(2-hydroxyethyl)-1-methyl-1H-pyrazole-5-carboxamide]
640 to 2560 nM | C[C@@H](O)Cn1cc(S(=O)(=O)NC(=O)Nc2c3c(cc4c2CCC4)CCC3)cn1 [Example 89, (R)—N-((1,2,3,5,6,7-Hexahydro-s-indacen-4-yl)carbamoyl)-1-(2-hydroxypropyl)-1H-pyrazole-4-sulfonamide]
160 to 640 nM | O=C(Nc1c2c(cc3c1CCC3)CCC2)NS(=O)(=O)c1ccn(C2COCC2O)n1 (stereo not drawn) [Example 105]
640 to 2560 nM | CC(C)(O)Cn1cc(S(=O)(=O)NC(=O)Nc2c3c(cc4c2CCC4)CCC3)cn1 [Example 88, N-((1,2,3,5,6,7-Hexahydro-s-indacen-4-yl)carbamoyl)-1-(2-hydroxy-2-methylpropyl)-1H-pyrazole-4-sulfonamide]
2560 to 10000 nM | O=C(Nc1c2c(cc3c1CCC3)CCC2)NS(=O)(=O)c1cnn(C2CCOCC2)c1 [Example 99]
640 to 2560 nM | COCCn1cc(S(=O)(=O)NC(=O)Nc2c3c(cc4c2CCC4)CCC3)cn1 [Example 101]
640 to 2560 nM | O=C(Nc1c2c(cc3c1CCC3)CCC2)NS(=O)(=O)c1cnn(C2CCOC2)c1 (stereo not drawn) [Example 100]
2560 to 10000 nM | COC1CCN(C(=O)c2cc(S(=O)(=O)NC(=O)Nc3c4c(cc5c3CCC5)CCC4)nn2C)C1 (stereo not drawn) [Example 71, N-((1,2,3,5,6,7-Hexahydro-s-indacen-4-yl)carbamoyl)-5-(3-methoxypyrrolidine-1-carbonyl)-1-methyl-1H-pyrazole-3-sulfonamide]
